From patent publication US5733929A, “Pharmaceutical composition for treating or preventing allergic rhinitis” (Takeda Chemical Industries, Ltd., priority 1993, dated 1998)
Counter-ions that a name gives are not always drawn.

What was measured:
[1] = test system: intranasal pressure increase induced by inhalation of antigens; test: Experiment 5: intranasal pressure increase induced by inhalation of antigens in actively sensitized (involving IgE participation) guinea pigs; type: in vivo; details: p.o.; for Internasal pressure increase AUC(0-30 min): 5% G.A. 339 ± 55
Method: Hartley male guinea pigs weighing 300 to 400 g (Nippon SLC, Shizuoka, Japan) were anesthetized with pentobarbital (30 mg/kg, i.p.) and fixed on their backs. The cervical part was opened along the median line, the trachea was opened for maintaining respiration, and a cannula was inserted. A tube (JMS cutdown tube, 2.5 mm in outer diameter and 3.5 cm in length) was inserted from the opened site of the trachea into the nasal cavity. The other end of the tube was connected to a respirator (Harvard respirator, model 683), and air was sent into the nasal cavity at a tidal volume of 4 ml and a respiration rate of 70/min. Aerosol of U-46619 (30 μg/ml) solution was prepared using an ultrasonic nebulizer and sent into the nasal cavity for 3 minutes. Changes of the intranasal pressure were determined with a differential pressure transducer connected to the branch of the tube. To prevent air leakage into the oral cavity, the oral cavity was closed with an adhesive (Aron alpha, trade name). Effects on intranasal pressure increase induced by inhalation of antigens in actively sensitized (involving IgE participation) guinea pigs Hartley male guinea pigs weighing 300 to 400 g (Nippon SLC, Shizuoka, Japan) were immunized by a modified method of the method of Levine et al. Sensitization was carried out by intraperitoneally administering physiological saline (1 ml) containing ovalbumin (OA)(10 μg) and aluminium hydroxide gel (5 mg) 4 times every 2 weeks. The sensitized guinea pigs were used one week after the final administration. These guinea pigs were anesthetized with pentobarbital (30 mg/kg, i.p.). In a similar manner to that described in Experiment 4, changes of intranasal pressure were determined. Aerosol of OA (3%) was prepared using an ultrasonic nebulizer provided between the respirator and the intranasal tube, and sent into the nasal cavity for 3 minutes. The test drug was suspended in 5% G.A. solution and orally administered one hour before the OA inhalation.

[2] = test system: intranasal pressure increase induced by antigen inhalation; test: Experiment 6: intranasal pressure increase induced by antigen inhalation in guinea pigs sensitized by antigen inhalation; type: in vivo; details: p.o.; for Increase of intranasal pressure AUC(0-25 min): 5% G.A. 278 ± 35
Method: Hartley male guinea pigs weighing 300 to 400 g (Nippon SLC, Shizuoka, Japan) were anesthetized with pentobarbital (30 mg/kg, i.p.) and fixed on their backs. The cervical part was opened along the median line, the trachea was opened for maintaining respiration, and a cannula was inserted. A tube (JMS cutdown tube, 2.5 mm in outer diameter and 3.5 cm in length) was inserted from the opened site of the trachea into the nasal cavity. The other end of the tube was connected to a respirator (Harvard respirator, model 683), and air was sent into the nasal cavity at a tidal volume of 4 ml and a respiration rate of 70/min. Aerosol of U-46619 (30 μg/ml) solution was prepared using an ultrasonic nebulizer and sent into the nasal cavity for 3 minutes. Changes of the intranasal pressure were determined with a differential pressure transducer connected to the branch of the tube. To prevent air leakage into the oral cavity, the oral cavity was closed with an adhesive (Aron alpha, trade name). Effects on intranasal pressure increase induced by antigen inhalation in guinea pigs sensitized by antigen inhalation Aerosol of 1% OA solution in physiological saline was prepared and administered to Hartley male guinea pigs weighing 300 to 400 g (Nippon SLC, Shizuoka, Japan) by inhalation for 10 minutes. One week later, inhalation was performed again for sensitization. These animals were used as sensitized animals. In a similar manner to that described in Experiment 4, intranasal pressure was determined. The test drug was suspended in 5% G.A. solution and orally administered one hour before the antigen induction.

[3] = biological target: T1, human platelet-derived TXA2 receptor (Homo sapiens, UniProt P21731); test: binding of U-46619 to human platelet-derived TXA2 receptor expressing cells (TCHO-25), receptor assay
T1 construct: expressed in transfected cells
T1 sequence (P21731 1-343): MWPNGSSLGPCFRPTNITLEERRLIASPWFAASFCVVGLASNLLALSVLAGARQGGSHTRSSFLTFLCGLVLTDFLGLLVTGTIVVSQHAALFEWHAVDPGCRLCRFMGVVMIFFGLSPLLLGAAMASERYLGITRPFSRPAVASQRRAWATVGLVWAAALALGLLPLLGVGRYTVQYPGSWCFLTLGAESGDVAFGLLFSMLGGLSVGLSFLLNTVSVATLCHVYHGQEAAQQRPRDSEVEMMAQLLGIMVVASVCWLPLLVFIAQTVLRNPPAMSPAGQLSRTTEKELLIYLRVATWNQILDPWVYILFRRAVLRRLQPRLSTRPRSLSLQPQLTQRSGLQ
From the text: Effects on the binding of U-46619 (11-9-epoxymethane-PGH2, a substance having thromboxane A2 -like activity) to human platelet-derived TXA2 receptor expressing cells
A vector containing cDNA encoding TXA2 receptor (TXA2 .cndot.R) and a vector containing cDNA encoding dihydrofolate reductase were mixed in a ratio of 10:1, and are transferred simultaneously to Chinese hamster ovary (CHO) cells by the calcium phosphate method. Two days later, these cells were inoculated into a medium containing 0.3 mM proline, 10% bovine fetus serum and 0.1 μM methotrexate in a concentration of 2000 cells/well and incubated.

[4] = test system: allergic experimental rhinitis; test: Experiment 1: inhibitory effects on allergic experimental rhinitis in guinea pigs (pigment leakage after antigen perfusion); type: in vivo; details: 30 mg/kg, oral, 1 hour before antigen
Method: Inhibitory effects on allergic experimental rhinitis in guinea pigs
Hartley male guinea pigs weighing 350 to 450 g were used. Aerosol of 1% ovalbumin (OA) in physiological saline was prepared using an ultrasonic nebulizer and administered to the guinea pigs by inhalation for 10 minutes. Thus the guinea pigs were sensitized. One week later, the antigen was administered again by inhalation, and the guinea pigs were used for this experiment after one week. The following experiment procedures were carried out by reference to the method of Kojima et al. (Allergy, Vol. 35, p. 180-187 (1986)).
The sensitized guinea pigs were anesthetized by administering pentobarbital (30 mg/kg) intraperitoneally. […] The collected sample was centrifuged at 3000 rpm for 10 minutes, and the absorbance of the supernatant at 620 nm was measured with a spectrophotometer to calculate the pigment concentration.
The drug was suspended in 5% gum arabic (G.A.) solution and was orally administered 1 hour before the antigen induction. The inhibitory ratio (%) was calculated as a ratio of the amount of the leaked pigment to the maximum amount of the leaked pigment in the control group 10 minutes after the antigen induction. […]

allergic rhinitis = test: Experiment 2: effects of perfusion in nasal cavities on allergic rhinitis in guinea pigs (pigment leakage); type: in vivo; details: 5 mg/kg perfused in nasal cavity; increase Period-3 minus Period-1; 16 animals; 5% G.A. 13.83 ± 2.61
Method: Effects of perfusion in nasal cavities on allergic rhinitis in guinea pigs
Aerosol of 1% ovalbumin (OA) solution in physiological saline was prepared using an ultrasonic nebulizer (TUR-3200, Nippon Kohden, Tokyo, Japan), and administered to Hartley male guinea pigs weighing 300 to 350 g (Seiwa Jikken Dohbutsu, Fukuoka, Japan) by inhalation for 10 minutes in a polyacrylamide box (20×28×20 cm) once a week (twice in all). Thus the guinea pigs were sensitized. One week after the sensitization, the guinea pigs were anesthetized with pentobarbital sodium (30 mg/kg, i.p.) and fixed on their backs on a thermal pad (Deltaphase isothermal pad, Braintree Scientific, Inc.). The cervical part was opened along the median line, the trachea was opened, a trachea cannula was inserted into the pulmonary side, and the esophagus was ligated. On the other hand, a polyethylene tube (5.5 cm in length, 2.3 mm in outer diameter, Hibiki) connected to an infusion pump was inserted at the nasal side into the choana. […] The resulting perfusion solution was centrifuged at 15,000× g for 1.5 minutes, and the amount of the pigment in the supernatant was determined by absorbance at 610 nm. The activity of the drug was evaluated using as an indication the increased amount of the leaked pigment at Period-3 (i.e., (the amount of the pigment at Period-3)--(the amount of the pigment at Period-1)).

ICR male mice = test: oral toxicity in mice; type: in vivo; details: 1000 mg/kg, five ICR male mice (5 weeks old), 7 days
From the text: The compounds to be used as an active ingredient in the present invention have low toxicity. […] The compound to be used as an active ingredient in the present invention can be used as it is or as a pharmaceutical composition (e.g., tablets, granules, capsules including soft capsules and microcapsules, liquid preparations, injections, suppositories, nasal drops, eye drops, etc.) prepared by mixing the compound with a per se known pharmaceutically acceptable carrier, diluent, excipient, etc., for treating or preventing allergic rhinitis, particularly nasal congestion in a mammal. The administration route may be oral or parenteral. The dose varies with the subject to be administered, administration route, symptoms, etc. For example, for oral administration to an adult patient, a unit dose of normally about 0.1 mg/kg to 20 mg/kg body weight, preferably 0.1 mg/kg to 10 mg/kg body weight is advantageously administered about once or twice a day.

Question: What does the source list for `CN1CCCC(n2nc(Cc3ccc(Cl)cc3)c3ccccc3c2=O)CC1` (stereo not shown) [Azelastine hydrochloride, reference compound]?
Answer: Internasal pressure increase AUC(0-30 min) ([1]; 1.0 mg/kg, 8 animals, **P < 0.01): 92 ± 14; Inhibitory ratio (%) ([1]; 1.0 mg/kg, AUC(0-30 min), 8 animals): 73%; Increase of intranasal pressure AUC(0-25 min) ([2]; 1.0 mg/kg, 7 animals, marked **): 157 ± 35; Inhibitory ratio (%) ([2]; 1.0 mg/kg, AUC(0-25 min), 7 animals): 44%

Question: With `CCCCC[C@H](O)/C=C/[C@@H]1[C@@H](C/C=C\CCCC(=O)O)[C@H]2CO[C@@H]1C2` [Compound U-46619, 11-9-epoxymethane-PGH2, reference compound] as the compound, how does the Kd ([3]; U-46619 based on TXA2 receptor on TCHO-25 cells, read-out: dissociation constant) read?
Answer: Its Kd is 31 nM.

Question: With `COc1ccc(CN(CCN(C)C)c2ccccn2)cc1` [Mepyramine] as the compound, how does the “Inhibitory ratio (%)” value ([4]; Table 1, 9 animals) read?
Answer: Its value is 81%.

Question: And the “Inhibitory ratio (%)” value ([4]; Table 2, 10 animals, **P < 0.01)?
Answer: The value was 77%.

Question: What does the source list for `CC1=C(C)C(=O)C(C(CCCCCC(=O)O)c2ccccc2)=C(C)C1=O` (racemic) [Compound 1, (±)-7-(3,5,6-trimethyl-1,4-benzoquinon-2-yl)-7-phenylheptanoic acid]?
Answer: inhibition of the binding of U-46619 to TXA2 receptor (mode) ([3]; TCHO-25 cells): competitively inhibited; Pigment concentration (allergic rhinitis): 8.87 ± 2.47 µg/mL; Internasal pressure increase AUC(0-30 min) ([1]; 0.3 mg/kg, 12 animals): 208 ± 44; Internasal pressure increase AUC(0-30 min) ([1]; 3.0 mg/kg, 12 animals): 241 ± 32; Internasal pressure increase AUC(0-30 min) ([1]; 30 mg/kg, 13 animals, *P < 0.05): 183 ± 36; Increase of intranasal pressure AUC(0-25 min) ([2]; 0.3 mg/kg, 7 animals): 246 ± 44; Increase of intranasal pressure AUC(0-25 min) ([2]; 3.0 mg/kg, 8 animals): 201 ± 41; Increase of intranasal pressure AUC(0-25 min) ([2]; 30 mg/kg, 7 animals, *P < 0.05): 143 ± 19; mortality (ICR male mice): no mice died
